Experimental data reported in patent US20220169654A1, “New Organic Compounds” (Servier Pharmaceuticals LLC, priority 2020, published 2022).

Legend:
MAT2A homodimer = target: T1, MAT2A homodimer (Homo sapiens, UniProt P31153); experiment: MAT2A inhibition (biochemical, liberated phosphate, PiColorLock Gold); settings: recombinant MAT2A homodimer; IC50 bin with Max Inh.; read-out: Enzyme Inhibition Bin
T1 construct: inferred from Ni sepharose purification with imidazole elution; made in house; host or cells: Sf9 insect cells, baculovirus (Bac to Bac, pFASTBAC1)
Summary of the method: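 Enzyme at 4 μg/mL and compound equilibrated 60 min at 25 °C, then 60 min reaction after adding substrate mix (500 μM ATP, 400 μM methionine). Released phosphate quantified by colorimetric kit against a phosphate standard curve to give IC50. Secondary format used 1 μg/mL enzyme with 5 h incubation.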

[1] = tested on: SAM in HCT116 human colon carcinoma cell line with MTAP gene deleted (MTAP −/−); experiment: Cellular assay of target engagement (SAM), LC-MS/MS, 72 hrs; format: cell-based; settings: HCT-116, IC50 bin with Max Inh., read-out: Cell 72 h SAM Inhibition (MTAP −/−)
Summary of the method: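 SAM levels were quantified by LC-MS/MS (m/z 399.2→250.1, d3-SAM internal standard) from cold methanol/acetic acid extracts, yielding IC50. Compound was applied as a 10-point 3-fold series for 72 hrs to MTAP −/− HCT116 cells seeded 24 hours before.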

HCT116 MTAP−/− = experiment: Inhibition of cellular proliferation, 4 days, Cell Titer Glo, HCT116 MTAP−/−; format: cell-based; settings: Homo sapiens, HCT-116, 96 h, IC50 bin with Max Inh., read-out: 4 Day Relative Growth Inhibition (MTAP −/−)
Summary of the method: (§1)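 IC50 derived from blank-corrected ATP luminescence (Cell Titer Glo) expressed relative to within-plate 0.2% DMSO wells. Compound, as a 10-point 3-fold series, was added 24 h after seeding the MTAP+/+ or MTAP−/− HCT116 cells and incubated 4 days at 37° C./5% CO2.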

HCT116 MTAP+/+ = experiment: Inhibition of cellular proliferation, 4 days, Cell Titer Glo, HCT116 MTAP+/+; format: cell-based; settings: Homo sapiens, HCT-116, 96 h, IC50 bin with Max Inh., read-out: 4 Day Relative Growth Inhibition (MTAP +/+)
Summary of the method: as §1

T1 sequence (P31153 whole entry): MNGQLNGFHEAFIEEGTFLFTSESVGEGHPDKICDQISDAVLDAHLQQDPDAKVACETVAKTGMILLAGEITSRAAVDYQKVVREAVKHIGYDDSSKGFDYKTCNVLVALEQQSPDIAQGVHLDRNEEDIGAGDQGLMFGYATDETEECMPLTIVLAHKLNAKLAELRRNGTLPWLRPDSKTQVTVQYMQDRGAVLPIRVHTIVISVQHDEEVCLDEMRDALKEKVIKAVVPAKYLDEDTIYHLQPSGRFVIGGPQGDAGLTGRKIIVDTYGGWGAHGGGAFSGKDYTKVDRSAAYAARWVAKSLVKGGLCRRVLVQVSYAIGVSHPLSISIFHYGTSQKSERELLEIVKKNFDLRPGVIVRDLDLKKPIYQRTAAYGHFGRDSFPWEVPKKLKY

Row | SMILES | IC50 (MAT2A homodimer) | IC50 [1] | IC50 (HCT116 MTAP−/−) | IC50 (HCT116 MTAP+/+)
1 | CNC(=O)c1cn(CC2CC2)c2c(-c3ccc(Cl)cc3)c(=O)n(-c3ccc4nn(C)cc4c3)nc12 [Example 171, 4-(4-chlorophenyl)-5-(cyclopropylmethyl)-N-methyl-2-(2-methyl-2H-indazol-5-yl)-3-oxo-3,5-dihydro-2H-pyrrolo[3,2-c]pyridazine-7-carboxamide] | < 100 nM | < 100 nM | < 100 nM | < 100 nM
2 | Cn1cc2cc(-n3nc4c(S(N)(=O)=O)cn(CC5CC5)c4c(-c4ccc(C5CC5)nc4)c3=O)ccc2n1 [Example 185, 5-(cyclopropylmethyl)-4-(6-cyclopropylpyridin-3-yl)-2-(2-methyl-2H-indazol-5-yl)-3-oxo-3,5-dihydro-2H-pyrrolo[3,2-c]pyridazine-7-sulfonamide] | < 100 nM | 100 to 1000 nM | 100 to 1000 nM | > 1000 nM
3 | Cc1ccc(-c2c(=O)n(-c3ccc4nn(C)cc4c3)nc3cnn(CC4CC4)c23)cn1 [Example 222, 1-(cyclopropylmethyl)-5-(2-methyl-2H-indazol-5-yl)-7-(6-methylpyridin-3-yl)-1,5-dihydro-6H-pyrazolo[4,3-c]pyridazin-6-one] | < 100 nM | 100 to 1000 nM | 100 to 1000 nM | > 1000 nM
4 | Cn1cc2cc(-n3nc4c(I)cn(CC5CC5)c4c(-c4ccc(C5CC5)nc4)c3=O)ccc2n1 [Example 117, 5-(cyclopropylmethyl)-4-(6-cyclopropylpyridin-3-yl)-7-iodo-2-(2-methyl-2H-indazol-5-yl)-2,5-dihydro-3H-pyrrolo[3,2-c]pyridazin-3-one] | < 100 nM | < 100 nM | < 100 nM | > 1000 nM
5 | O=c1c(-c2ccc(OC(F)F)cc2)c2c(ccn2CC2CC2)nn1-c1ccc2ncccc2c1 [Example 225, 5-(cyclopropylmethyl)-4-(4-(difluoromethoxy)phenyl)-2-(quinolin-6-yl)-2,5-dihydro-3H-pyrrolo[3,2-c]pyridazin-3-one] | < 100 nM | < 100 nM | < 100 nM | 100 to 1000 nM
6 | Cn1cc2cc(-n3nc4c(C#N)cn(CC5CC5)c4c(-c4ccc(CO)nc4)c3=O)ccc2n1 [Example 158, 5-(cyclopropylmethyl)-4-(6-(hydroxymethyl)pyridin-3-yl)-2-(2-methyl-2H-indazol-5-yl)-3-oxo-3,5-dihydro-2H-pyrrolo[3,2-c]pyridazine-7-carbonitrile] | < 100 nM | 100 to 1000 nM | 100 to 1000 nM | > 1000 nM
7 | CNC(=O)c1cn(CC2CC2)c2c(-c3ccc(C4CC4)nc3)c(=O)n(-c3ccc4nn(C)cc4c3)nc12 [Example 162, 5-(cyclopropylmethyl)-4-(6-cyclopropylpyridin-3-yl)-N-methyl-2-(2-methyl-2H-indazol-5-yl)-3-oxo-2H,3H,5H-pyrrolopyridazine-7-carboxamide] | < 100 nM | < 100 nM | < 100 nM | 100 to 1000 nM
8 | Cn1cc2cc(-n3nc4c(C#N)cn(CC5CC5)c4c(-c4ccc(C(F)F)nc4)c3=O)ccc2n1 [Example 143, 5-(cyclopropylmethyl)-4-(6-(difluoromethyl)pyridin-3-yl)-2-(2-methyl-2H-indazol-5-yl)-3-oxo-3,5-dihydro-2H-pyrrolo[3,2-c]pyridazine-7-carbonitrile] | < 100 nM | < 100 nM | < 100 nM | 100 to 1000 nM
9 | C=C(CF)c1ccc(-c2c(=O)n(-c3ccc4nn(C)cc4c3)nc3c(C#N)cn(CC4CC4)c23)cn1 [Example 257, 5-(cyclopropylmethyl)-4-(6-(3-fluoroprop-1-en-2-yl)pyridin-3-yl)-2-(2-methyl-2H-indazol-5-yl)-3-oxo-3,5-dihydro-2H-pyrrolo[3,2-c]pyridazine-7-carbonitrile] | < 100 nM | 100 to 1000 nM | 100 to 1000 nM | > 1000 nM
10 | CC(C)Cn1ccc2nn(-c3ccc4nn(C)cc4c3)c(=O)c(-c3ccc(OC(F)F)cc3)c21 [Example 115, 4-(4-(difluoromethoxy)phenyl)-5-isobutyl-2-(2-methyl-2H-indazol-5-yl)-2,5-dihydro-3H-pyrrolo[3,2-c]pyridazin-3-one] | < 100 nM | < 100 nM | < 100 nM | > 1000 nM
11 | Cn1cc2cc(-n3nc4ccn(CC5CC5)c4c(-c4ccc(OC(F)F)cc4)c3=O)ccc2n1 [Example 101, 5-(cyclopropylmethyl)-4-(4-(difluoromethoxy)phenyl)-2-(2-methyl-2H-indazol-5-yl)-2,5-dihydro-3H-pyrrolo[3,2-c]pyridazin-3-one] | < 100 nM | < 100 nM | < 100 nM | > 1000 nM
12 | Cc1nc2ccc(-n3nc4ccn(CC5CC5)c4c(-c4ccc(C(F)F)nc4)c3=O)cc2n1C [Example 140, 5-(cyclopropylmethyl)-4-(6-(difluoromethyl)pyridin-3-yl)-2-(1,2-dimethyl-1H-benzo[d]imidazol-6-yl)-2,5-dihydro-3H-pyrrolo[3,2-c]pyridazin-3-one] | < 100 nM | < 100 nM | < 100 nM | 100 to 1000 nM
13 | Cn1cc2cc(-n3nc4c(C(=O)O)cn(CC5CC5)c4c(-c4ccc(C5CC5)nc4)c3=O)ccc2n1 [Example 163, 5-(cyclopropylmethyl)-4-(6-cyclopropylpyridin-3-yl)-2-(2-methyl-2H-indazol-5-yl)-3-oxo-3,5-dihydro-2H-pyrrolo[3,2-c]pyridazine-7-carboxylic acid] | < 1000 nM | > 1000 nM | 100 to 1000 nM | > 1000 nM
14 | Cn1cc2cc(-n3nc4ccn(CC5CC5)c4c(-c4ccc(C(F)(F)F)nc4)c3=O)ccc2n1 [Example 118, 5-(cyclopropylmethyl)-2-(2-methyl-2H-indazol-5-yl)-4-(6-(trifluoromethyl)pyridin-3-yl)-2,5-dihydro-3H-pyrrolo[3,2-c]pyridazin-3-one] | < 100 nM | < 100 nM | < 100 nM | > 1000 nM
15 | Cc1nn(CC2CC2)c2c(-c3ccc(OC(F)F)cc3)c(=O)n(-c3ccc4nn(C)cc4c3)nc12 [Example 212, 1-(cyclopropylmethyl)-7-(4-(difluoromethoxy)phenyl)-3-methyl-5-(2-methyl-2H-indazol-5-yl)-1,5-dihydro-6H-pyrazolo[4,3-c]pyridazin-6-one] | < 100 nM | < 100 nM | < 100 nM | < 100 nM
16 | Cn1cc2cc(-n3nc4ccn(CC5CC5)c4c(-c4ccc(C(F)F)nc4)c3=O)ccc2n1 [Example 123, 5-(cyclopropylmethyl)-4-(6-(difluoromethyl)pyridin-3-yl)-2-(2-methyl-2H-indazol-5-yl)-2,5-dihydro-3H-pyrrolo[3,2-c]pyridazin-3-one] | < 100 nM | < 100 nM | < 100 nM | 100 to 1000 nM
17 | [2H]C([2H])([2H])Oc1ccc(-n2nc3ccn(CC4CC4)c3c(-c3ccc(C(F)F)nc3)c2=O)cc1 [Example 132, 5-(cyclopropylmethyl)-4-(6-(difluoromethyl)pyridin-3-yl)-2-(4-(methoxy-d3)phenyl)-2,5-dihydro-3H-pyrrolo[3,2-c]pyridazin-3-one] | < 100 nM | 100 to 1000 nM | 100 to 1000 nM | > 1000 nM
18 | COC1CC=C(n2nc3ccn(CC4CC4)c3c(-c3ccc(OC(F)F)cc3)c2=O)CC1 (stereo not drawn) [Example 230, 5-(cyclopropylmethyl)-4-(4-(difluoromethoxy)phenyl)-2-(4-methoxycyclohex-1-en-1-yl)-2,5-dihydro-3H-pyrrolo[3,2-c]pyridazin-3-one] | < 100 nM | 100 to 1000 nM | 100 to 1000 nM | > 1000 nM
19 | Cn1cc2cc(-n3nc4c(C#N)cn(CC5CC5)c4c(-c4ccc(C5(O)CC5)nc4)c3=O)ccc2n1 [Example 256, 5-(cyclopropylmethyl)-4-(6-(1-hydroxycyclopropyl)pyridin-3-yl)-2-(2-methyl-2H-indazol-5-yl)-3-oxo-3,5-dihydro-2H-pyrrolo[3,2-c]pyridazine-7-carbonitrile] | < 100 nM | 100 to 1000 nM | 100 to 1000 nM | > 1000 nM
20 | Cc1ccc(-c2c(=O)n(-c3ccc4nn(C)cc4c3)nc3[nH]c(=O)n(CC4CC4)c23)cn1 [Example 207, 5-(cyclopropylmethyl)-2-(2-methyl-2H-indazol-5-yl)-4-(6-methylpyridin-3-yl)-2,7-dihydro-3H-imidazo[4,5-c]pyridazine-3,6(5H)-dione] | < 100 nM | < 100 nM | 100 to 1000 nM | > 1000 nM
21 | Cn1cc2cc(-n3nc4ccn(CC5CC5)c4c(-c4ccc(C5CC5)nc4)c3=O)ccc2n1 [Example 106, 5-(cyclopropylmethyl)-4-(6-cyclopropylpyridin-3-yl)-2-(2-methyl-2H-indazol-5-yl)-2,5-dihydro-3H-pyrrolo[3,2-c]pyridazin-3-one] | < 100 nM | < 100 nM | < 100 nM | > 1000 nM
